Data as given in publication PMC8113725, “Structure–activity relationship of ipglycermide binding to phosphoglycerate mutases” (The Journal of Biological Chemistry, 2021).
Bridge positions count the residues as written; N and C are the ends. Square brackets hold non-standard residues; d marks the D form. Peptide text beside a SMILES is read from it. Phe(4-F) = N[C@@H](Cc1ccc(F)cc1)C(=O)O; Abu = CC[C@H](N)C(=O)O

Tests used:
D. immitis iPGM = D. immitis iPGM (Dirofilaria immitis, UniProt F4ZE01); assay: biochemical
E. coli iPGM [1] = target: T1, E. coli iPGM (Escherichia coli, UniProt P37689); assay: biochemical; settings: […]
B. malayi iPGM = target: T2, B. malayi iPGM (Brugia malayi, UniProt Q4VWF8); assay: biochemical; assay type: binding; settings: for Kd: Supplementary Table 5, SPR, B.m. iPGM, unit inferred
T2 sequence (Q4VWF8 1-515): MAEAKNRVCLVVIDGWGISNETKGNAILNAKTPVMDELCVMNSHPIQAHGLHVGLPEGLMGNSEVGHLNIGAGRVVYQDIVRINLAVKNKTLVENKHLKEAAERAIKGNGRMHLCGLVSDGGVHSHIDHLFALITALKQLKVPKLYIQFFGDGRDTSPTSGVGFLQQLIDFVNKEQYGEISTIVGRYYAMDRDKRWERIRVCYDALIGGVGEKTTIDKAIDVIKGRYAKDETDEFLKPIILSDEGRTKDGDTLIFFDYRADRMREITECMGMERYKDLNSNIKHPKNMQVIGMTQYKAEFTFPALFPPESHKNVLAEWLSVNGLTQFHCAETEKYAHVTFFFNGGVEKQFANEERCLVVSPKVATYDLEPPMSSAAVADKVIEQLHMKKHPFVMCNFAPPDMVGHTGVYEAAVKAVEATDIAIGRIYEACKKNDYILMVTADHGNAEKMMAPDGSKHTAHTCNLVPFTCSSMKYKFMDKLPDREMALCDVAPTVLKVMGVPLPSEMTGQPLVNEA

E. coli iPGM [2] = target: T1, E. coli iPGM; assay: SPR binding kinetics and saturation binding, biotinylated iPGM on Biotin CAPture chip (Biacore S200); settings: Supplementary Table 5, SPR, E.c. iPGM; for koff / kon: LoQ = limit of quantitation; for Kd: unit inferred
C. elegans iPGM = C. elegans iPGM (Caenorhabditis elegans, UniProt G5EFZ1); assay: as above

| Compound | IC50 (D. immitis iPGM; Di iPGM Ave IC50 (M)) [M] | IC50 (E. coli iPGM [1]) [nM] | koff (B. malayi iPGM) [s⁻¹] | kon (B. malayi iPGM) [M⁻¹ s⁻¹] | Kd (B. malayi iPGM) [nM] | koff (E. coli iPGM [2]) | kon (E. coli iPGM [2]) | Kd (C. elegans iPGM) [nM] | koff (C. elegans iPGM) [s⁻¹] | kon (C. elegans iPGM) [M⁻¹ s⁻¹] | Kd (E. coli iPGM [2]) [nM] | IC50 (D. immitis iPGM; IC50 (M)) [M] |
| --- | --- | --- | --- | --- | --- | --- | --- | --- | --- | --- | --- | --- |
| CC(C)C[C@H](NC(=O)[C@H](Cc1ccc(O)cc1)NC(=O)[C@@H]1CSCC(=O)N[C@H](Cc2ccc(O)cc2)C(=O)N[C@@H](CC(=O)O)C(=O)N[C@@H](Cc2ccc(O)cc2)C(=O)N2CCC[C@H]2C(=O)NCC(=O)N[C@@H](CC(=O)O)C(=O)N[C@@H](Cc2ccc(F)cc2)C(=O)N1)C(=O)N[C@@H](Cc1ccc(O)cc1)C(=O)NCC(=O)N[C@H](C(=O)N[C@@H](CS)C(N)=O)[C@@H](C)O [Ce-2 Y7(4F)F] | 1.67e-09 | 12800 | – | – | – | – | – | – | – | – | – | – |
| CC(C)C[C@H](NC(=O)[C@H](Cc1ccc(O)cc1)NC(=O)[C@@H]1CSCC(=O)N[C@H](Cc2ccc(O)cc2)C(=O)N[C@@H](CC(=O)O)C(=O)N[C@@H](Cc2ccc(O)cc2)C(=O)N2CCC[C@H]2C(=O)NCC(=O)N[C@@H](CC(=O)O)C(=O)N[C@@H](Cc2ccc(O)cc2)C(=O)N1)C(=O)N[C@@H](Cc1ccc(O)cc1)C(=O)NCC(=O)NCC(=O)NO [Ce-2 T13G, C14NHOH] | 1.84e-07 | – | 0.0284 | 110000 | 245 | > LOQ | > LOQ | 16.3 | 0.00251 | 197000 | – | – |
| COc1ccc(C[C@H](NC(=O)[C@H](CC(C)C)NC(=O)[C@H](Cc2ccc(O)cc2)NC(=O)[C@@H]2CSCC(=O)N[C@H](Cc3ccc(O)cc3)C(=O)N[C@@H](CC(=O)O)C(=O)N[C@@H](Cc3ccc(O)cc3)C(=O)N3CCC[C@H]3C(=O)NCC(=O)N[C@@H](CC(=O)O)C(=O)N[C@@H](Cc3ccc(O)cc3)C(=O)N2)C(N)=O)cc1 [Ce-2d Y11(4OMe)F] | 6.05e-08 | 12800 | – | – | – | – | – | – | – | – | – | – |
| CC(C)C[C@H](NC(=O)[C@H](Cc1ccc(O)cc1)NC(=O)[C@@H]1CSCC(=O)N[C@H](Cc2ccc(O)cc2)C(=O)N[C@@H](CC(=O)O)C(=O)N[C@@H](Cc2ccc(F)cc2)C(=O)N2CCC[C@H]2C(=O)NCC(=O)N[C@@H](CC(=O)O)C(=O)N[C@@H](Cc2ccc(O)cc2)C(=O)N1)C(=O)N[C@@H](Cc1ccc(O)cc1)C(=O)NCC(=O)N[C@H](C(=O)N[C@@H](CS)C(N)=O)[C@@H](C)O [Ce-2 Y3(4F)F] ({CH2CO}-[dY]D[Phe(4-F)]PGDYCYLYGTC-NH2; thioether N-8) | 1.52e-09 | 4180 | – | – | – | – | – | – | – | – | – | – |
| CC(C)C[C@H](NC(=O)[C@H](Cc1ccc(O)cc1)NC(=O)[C@@H]1CSCC(=O)N[C@H](Cc2ccc(O)cc2)C(=O)N[C@@H](CC(=O)O)C(=O)N[C@@H](Cc2ccc(O)cc2)C(=O)N2CCC[C@H]2C(=O)NCC(=O)N[C@@H](CC(=O)O)C(=O)N[C@@H](Cc2ccc(O)cc2)C(=O)N1)C(=O)N[C@@H](Cc1ccc(O)cc1)C(=O)NCCCC(=O)N[C@@H](CS)C(N)=O [Ce-2 [12-13]GABA] | 2.85e-09 | 2980 | – | – | – | – | – | – | – | – | – | – |
| CC(C)C[C@H](NC(=O)[C@H](Cc1ccc(O)cc1)NC(=O)[C@@H]1CSCC(=O)N[C@H](Cc2ccc(O)cc2)C(=O)N[C@@H](CC(=O)O)C(=O)N[C@@H](Cc2ccc(O)cc2)C(=O)N2CCC[C@H]2C(=O)NCC(=O)N[C@@H](CC(=O)O)C(=O)N[C@@H](Cc2ccc(O)cc2)C(=O)N1)C(=O)N[C@@H](Cc1ccc(O)cc1)C(=O)NCC(=O)N[C@@H](Cc1c[nH]cn1)C(=O)N[C@@H](CS)C(N)=O [Ce-2 T13H] | – | – | 0.000587 | 1.06e+06 | 0.555 | 0.0144 s⁻¹ | 103000 M⁻¹ s⁻¹ | 0.0264 | 1.98e-05 | 752000 | 62.7 | 3.77e-09 |
| CC[C@@H]1NC(=O)[C@@H](Cc2ccc(O)cc2)NC(=O)CSC[C@@H](C(=O)N[C@@H](Cc2ccc(O)cc2)C(=O)N[C@@H](CC(C)C)C(=O)N[C@@H](Cc2ccc(O)cc2)C(=O)NCC(=O)N[C@H](C(=O)N[C@@H](CS)C(N)=O)[C@@H](C)O)NC(=O)[C@H](Cc2ccc(O)cc2)NC(=O)[C@H](CC(=O)O)NC(=O)CNC(=O)[C@@H]2CCCN2C(=O)[C@H](Cc2ccc(O)cc2)NC1=O [Ce-2 D2Abu] ({CH2CO}-[dY][Abu]YPGDYCYLYGTC-NH2; thioether N-8) | 1.52e-09 | – | 0.000125 | 561000 | 0.223 | 0.00202 s⁻¹ | 270000 M⁻¹ s⁻¹ | 0.0157 | 4.55e-05 | 3.04e+06 | 25.4 | 1.57e-09 |
| CC(C)C[C@H](NC(=O)[C@H](Cc1ccc(O)cc1)NC(=O)[C@@H]1CSCC(=O)N[C@H](Cc2ccc(O)cc2)C(=O)N[C@@H](CC(=O)O)C(=O)N[C@@H](Cc2ccc(O)cc2)C(=O)N2CCC[C@H]2C(=O)N[C@@H](CC(C)C)C(=O)N[C@@H](CC(=O)O)C(=O)N[C@@H](Cc2ccc(O)cc2)C(=O)N1)C(=O)N[C@@H](Cc1ccc(O)cc1)C(N)=O [Ce-2d G5L] | – | 13200 | – | – | – | – | – | – | – | – | – | – |
